Experimental data: the NIST ThermoML archive (doi:10.1016/j.jct.2011.05.018)
Numbers after ± are expanded uncertainties.

Assay: xn = mol fraction of the nth substance listed
Details: 101 kPa, Liquid; for viscosity: Capillary tube (Ostwald / Ubbelohde) method; for speed of sound: Pulse-echo method; for mass density: Pycnometric method

Molecule `COc1ccc(C=O)cc1` [4-methoxybenzaldehyde] + Cc1ccccc1O has a viscosity (303.15 K, x1 = 0.0875) of 7.163 ± 0.051 mPa·s, a viscosity (303.15 K, x1 = 0.1774) of 6.824 ± 0.049 mPa·s and a viscosity (303.15 K, x1 = 0.2699) of 6.519 ± 0.047 mPa·s. The viscosity (303.15 K, x1 = 0.3651) was 6.202 ± 0.045 mPa·s, the viscosity (303.15 K, x1 = 0.4631) was 5.778 ± 0.042 mPa·s and the viscosity (303.15 K, x1 = 0.564) was 5.319 ± 0.039 mPa·s. It also gave a viscosity (303.15 K, x1 = 0.668) of 4.811 ± 0.036 mPa·s, a viscosity (303.15 K, x1 = 0.7753) of 4.261 ± 0.032 mPa·s and a viscosity (303.15 K, x1 = 0.8859) of 3.758 ± 0.028 mPa·s. It also gave a viscosity (303.15 K, x1 = 1) of 3.251 ± 0.024 mPa·s, a speed of sound (303.15 K, x1 = 0.0875) of 1507.7 ± 1.6 m/s and a speed of sound (303.15 K, x1 = 0.1774) of 1526.3 ± 1.6 m/s. It also gave a speed of sound (303.15 K, x1 = 0.2699) of 1545.5 ± 1.6 m/s, a speed of sound (303.15 K, x1 = 0.3651) of 1565 ± 1.6 m/s and a speed of sound (303.15 K, x1 = 0.4631) of 1585.2 ± 1.6 m/s. The speed of sound (303.15 K, x1 = 0.564) was 1611.2 ± 1.6 m/s, the speed of sound (303.15 K, x1 = 0.668) was 1637 ± 1.6 m/s and the speed of sound (303.15 K, x1 = 0.7753) was 1658.9 ± 1.6 m/s. It also gave a speed of sound (303.15 K, x1 = 0.8859) of 1681.5 ± 1.6 m/s, a speed of sound (303.15 K, x1 = 1) of 1694.3 ± 1.6 m/s and a mass density (303.15 K, x1 = 0.0875) of 1039.2 ± 10 kg/m3. The mass density (303.15 K, x1 = 0.1774) was 1044.2 ± 10 kg/m3, the mass density (303.15 K, x1 = 0.2699) was 1050.1 ± 10 kg/m3 and the mass density (303.15 K, x1 = 0.3651) was 1058.5 ± 11 kg/m3. The mass density (303.15 K, x1 = 0.4631) was 1067.1 ± 11 kg/m3, the mass density (303.15 K, x1 = 0.564) was 1074.3 ± 11 kg/m3 and the mass density (303.15 K, x1 = 0.668) was 1081.3 ± 11 kg/m3. For the same molecule, the mass density (303.15 K, x1 = 0.7753) was 1093.2 ± 11 kg/m3, the mass density (303.15 K, x1 = 0.8859) was 1106.6 ± 11 kg/m3 and the mass density (303.15 K, x1 = 1) was 1125.2 ± 11 kg/m3. For the same molecule, the viscosity (308.15 K, x1 = 0.0875) was 5.762 ± 0.042 mPa·s, the viscosity (308.15 K, x1 = 0.1774) was 5.54 ± 0.041 mPa·s and the viscosity (308.15 K, x1 = 0.2699) was 5.361 ± 0.04 mPa·s. It also gave a viscosity (308.15 K, x1 = 0.3651) of 5.168 ± 0.038 mPa·s, a viscosity (308.15 K, x1 = 0.4631) of 4.874 ± 0.036 mPa·s and a viscosity (308.15 K, x1 = 0.564) of 4.56 ± 0.034 mPa·s. It also gave a viscosity (308.15 K, x1 = 0.668) of 4.196 ± 0.031 mPa·s, a viscosity (308.15 K, x1 = 0.7753) of 3.815 ± 0.029 mPa·s and a viscosity (308.15 K, x1 = 0.8859) of 3.475 ± 0.026 mPa·s. For the same molecule, the viscosity (308.15 K, x1 = 1) was 3.131 ± 0.023 mPa·s, the speed of sound (308.15 K, x1 = 0.0875) was 1488.3 ± 1.6 m/s and the speed of sound (308.15 K, x1 = 0.1774) was 1506.2 ± 1.6 m/s. For the same molecule, the speed of sound (308.15 K, x1 = 0.2699) was 1524.9 ± 1.6 m/s, the speed of sound (308.15 K, x1 = 0.3651) was 1544.2 ± 1.6 m/s and the speed of sound (308.15 K, x1 = 0.4631) was 1564 ± 1.6 m/s. For the same molecule, the speed of sound (308.15 K, x1 = 0.564) was 1589.4 ± 1.6 m/s, the speed of sound (308.15 K, x1 = 0.668) was 1613.8 ± 1.6 m/s and the speed of sound (308.15 K, x1 = 0.7753) was 1635.2 ± 1.6 m/s. For the same molecule, the speed of sound (308.15 K, x1 = 0.8859) was 1657.2 ± 1.6 m/s, the speed of sound (308.15 K, x1 = 1) was 1670.7 ± 1.6 m/s and the mass density (308.15 K, x1 = 0.0875) was 1033.8 ± 10 kg/m3. It also gave a mass density (308.15 K, x1 = 0.1774) of 1038.2 ± 10 kg/m3, a mass density (308.15 K, x1 = 0.2699) of 1043.4 ± 10 kg/m3 and a mass density (308.15 K, x1 = 0.3651) of 1050.6 ± 10 kg/m3. The mass density (308.15 K, x1 = 0.4631) was 1058.4 ± 11 kg/m3, the mass density (308.15 K, x1 = 0.564) was 1065 ± 11 kg/m3 and the mass density (308.15 K, x1 = 0.668) was 1071.5 ± 11 kg/m3. The mass density (308.15 K, x1 = 0.7753) was 1082.8 ± 11 kg/m3, the mass density (308.15 K, x1 = 0.8859) was 1095.3 ± 11 kg/m3 and the mass density (308.15 K, x1 = 1) was 1111.6 ± 11 kg/m3. For the same molecule, the viscosity (313.15 K, x1 = 0.0875) was 4.162 ± 0.032 mPa·s, the viscosity (313.15 K, x1 = 0.1774) was 4.072 ± 0.031 mPa·s and the viscosity (313.15 K, x1 = 0.2699) was 4.007 ± 0.03 mPa·s. The viscosity (313.15 K, x1 = 0.3651) was 3.936 ± 0.03 mPa·s, the viscosity (313.15 K, x1 = 0.4631) was 3.806 ± 0.029 mPa·s and the viscosity (313.15 K, x1 = 0.564) was 3.673 ± 0.028 mPa·s. For the same molecule, the viscosity (313.15 K, x1 = 0.668) was 3.494 ± 0.026 mPa·s, the viscosity (313.15 K, x1 = 0.7753) was 3.291 ± 0.025 mPa·s and the viscosity (313.15 K, x1 = 0.8859) was 3.126 ± 0.024 mPa·s. It also gave a viscosity (313.15 K, x1 = 1) of 2.961 ± 0.022 mPa·s, a speed of sound (313.15 K, x1 = 0.0875) of 1470.7 ± 1.6 m/s and a speed of sound (313.15 K, x1 = 0.1774) of 1486.3 ± 1.6 m/s. The speed of sound (313.15 K, x1 = 0.2699) was 1502.6 ± 1.6 m/s, the speed of sound (313.15 K, x1 = 0.3651) was 1519.6 ± 1.6 m/s and the speed of sound (313.15 K, x1 = 0.4631) was 1536.9 ± 1.6 m/s. The speed of sound (313.15 K, x1 = 0.564) was 1560.3 ± 1.6 m/s, the speed of sound (313.15 K, x1 = 0.668) was 1580 ± 1.6 m/s and the speed of sound (313.15 K, x1 = 0.7753) was 1598.1 ± 1.6 m/s. For the same molecule, the speed of sound (313.15 K, x1 = 0.8859) was 1617.6 ± 1.6 m/s, the speed of sound (313.15 K, x1 = 1) was 1631.3 ± 1.6 m/s and the mass density (313.15 K, x1 = 0.0875) was 1030.2 ± 10 kg/m3. The mass density (313.15 K, x1 = 0.1774) was 1034.7 ± 10 kg/m3, the mass density (313.15 K, x1 = 0.2699) was 1040.9 ± 10 kg/m3 and the mass density (313.15 K, x1 = 0.3651) was 1047.3 ± 10 kg/m3. For the same molecule, the mass density (313.15 K, x1 = 0.4631) was 1055.4 ± 11 kg/m3, the mass density (313.15 K, x1 = 0.564) was 1062.1 ± 11 kg/m3 and the mass density (313.15 K, x1 = 0.668) was 1070 ± 11 kg/m3. It also gave a mass density (313.15 K, x1 = 0.7753) of 1082.1 ± 11 kg/m3, a mass density (313.15 K, x1 = 0.8859) of 1094.9 ± 11 kg/m3 and a mass density (313.15 K, x1 = 1) of 1109.5 ± 11 kg/m3. The viscosity (318.15 K, x1 = 0.0875) was 2.269 ± 0.019 mPa·s, the viscosity (318.15 K, x1 = 0.1774) was 2.313 ± 0.019 mPa·s and the viscosity (318.15 K, x1 = 0.2699) was 2.363 ± 0.019 mPa·s. It also gave a viscosity (318.15 K, x1 = 0.3651) of 2.414 ± 0.019 mPa·s, a viscosity (318.15 K, x1 = 0.4631) of 2.451 ± 0.019 mPa·s and a viscosity (318.15 K, x1 = 0.564) of 2.496 ± 0.019 mPa·s. For the same molecule, the viscosity (318.15 K, x1 = 0.668) was 2.543 ± 0.02 mPa·s, the viscosity (318.15 K, x1 = 0.7753) was 2.589 ± 0.02 mPa·s and the viscosity (318.15 K, x1 = 0.8859) was 2.631 ± 0.02 mPa·s. For the same molecule, the viscosity (318.15 K, x1 = 1) was 2.682 ± 0.02 mPa·s, the speed of sound (318.15 K, x1 = 0.0875) was 1449.6 ± 1.6 m/s and the speed of sound (318.15 K, x1 = 0.1774) was 1460.1 ± 1.6 m/s. The speed of sound (318.15 K, x1 = 0.2699) was 1470.9 ± 1.6 m/s, the speed of sound (318.15 K, x1 = 0.3651) was 1482.2 ± 1.6 m/s and the speed of sound (318.15 K, x1 = 0.4631) was 1493.9 ± 1.6 m/s. For the same molecule, the speed of sound (318.15 K, x1 = 0.564) was 1511.3 ± 1.6 m/s, the speed of sound (318.15 K, x1 = 0.668) was 1524.3 ± 1.6 m/s and the speed of sound (318.15 K, x1 = 0.7753) was 1536.6 ± 1.6 m/s. The speed of sound (318.15 K, x1 = 0.8859) was 1549.5 ± 1.6 m/s, the speed of sound (318.15 K, x1 = 1) was 1557 ± 1.6 m/s and the mass density (318.15 K, x1 = 0.0875) was 1026.3 ± 10 kg/m3. The mass density (318.15 K, x1 = 0.1774) was 1031.9 ± 10 kg/m3, the mass density (318.15 K, x1 = 0.2699) was 1038.3 ± 10 kg/m3 and the mass density (318.15 K, x1 = 0.3651) was 1044.3 ± 10 kg/m3. It also gave a mass density (318.15 K, x1 = 0.4631) of 1052.8 ± 10 kg/m3, a mass density (318.15 K, x1 = 0.564) of 1059.5 ± 11 kg/m3 and a mass density (318.15 K, x1 = 0.668) of 1067.7 ± 11 kg/m3. It also gave a mass density (318.15 K, x1 = 0.7753) of 1078.8 ± 11 kg/m3, a mass density (318.15 K, x1 = 0.8859) of 1090.1 ± 11 kg/m3 and a mass density (318.15 K, x1 = 1) of 1104.7 ± 11 kg/m3.
